Data taken from patent US7045343B2, “Sterilization indicator test packs” (3M Innovative Properties Company, priority 1998, dated 2006).

Columns and labels:
[1] = system: Bacillus stearothermophilus spores; assay: Spore outgrowth (color change) of indicators after prevacuum steam sterilization; type: cell-based; settings: 4-pulse prevacuum steam 121° C.
Procedure, shortened: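 Bacillus stearothermophilus ATCC 7953 spores were cleaned, mixed into a heated sterilant-resistant coating chemical solution and pipetted onto paper strips at about 1×10^6 spores per strip. The strips were dried and placed in indicators, then exposed to a 4-pulse prevacuum steam cycle at 121° C. After exposure the media ampoule was crushed, and growth was judged visually as a purple-to-yellow color change after 168 hours at 60° C.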

[2] = system: enzyme associated with Bacillus stearothermophilus spores; assay: Rapid enzyme fluorescence readout of dual rapid readout indicators after prevacuum steam sterilization; type: biochemical; settings: 4-pulse prevacuum steam 121° C.
Procedure, shortened: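 Bacillus stearothermophilus ATCC 7953 spores were coated with a sterilant-resistant chemical solution and pipetted onto paper strips at about 1×10^6 spores per strip. Each strip sat in a dual rapid readout indicator beside a crushable inner container of nutrient medium holding 4-methylumbelliferyl-alpha-D-glucoside at pH 7.6. Indicators went through a 4-pulse prevacuum steam cycle at 121° C, were activated, incubated at 60° C, and read for fluorescence on a 3M ATTEST Model 190 Rapid Autoreader.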

[3] = Example 1, 10 mg/ml coating, 7–13 min
[4] = Example 1, 20 mg/ml coating, 7–13 min
[5] = Example 1, 40 mg/ml coating, 7–13 min
[6] = Example 1, 80 mg/ml coating, 7–13 min
[7] = Example 1, 100 mg/ml coating, 7–13 min
[8] = Example 3, 100 mg/ml coating, 7–15 min
[9] = Example 4, 50 mg/ml coating, 7–18 min
[10] = Example 4, 100 mg/ml coating, 7–18 min

Decaglyceryl Monostearate
NO. GROWTH POSITIVE 168 HR [1, 3]: 39 | NO. GROWTH POSITIVE 168 HR [1, 4]: 34 | NO. GROWTH POSITIVE 168 HR [1, 5]: 59 | NO. GROWTH POSITIVE 168 HR [1, 6]: 55 | NO. GROWTH POSITIVE 168 HR [1, 7]: 34 | GROWTH POSITIVE 168 HR [1, 8]: 20 | NO. GROWTH POSITIVE 168 HR [1, 9]: 29 | accuracy of sterilization indicators compared to indicators made with untreated spores [2]: improved | accuracy of sterilization indicators compared to indicators made with untreated spores ([2]; listed as decaglycerol monostearate): improved accuracy | FLUORESCENCE - PERCENT POSITIVE 1 HR [2, 3]: 0% | FLUORESCENCE - PERCENT POSITIVE 2 HR [2, 3]: 41.0% | FLUORESCENCE - PERCENT POSITIVE 3 HR [2, 3]: 74.4% | FLUORESCENCE - PERCENT POSITIVE 4 HR [2, 3]: 82.1% | FLUORESCENCE - PERCENT POSITIVE 5 HR [2, 3]: 87.2% | FLUORESCENCE - PERCENT POSITIVE 6 HR [2, 3]: 89.7% | FLUORESCENCE - PERCENT POSITIVE 1 HR [2, 4]: 0% | FLUORESCENCE - PERCENT POSITIVE 2 HR [2, 4]: 17.6% | FLUORESCENCE - PERCENT POSITIVE 3 HR [2, 4]: 73.5% | FLUORESCENCE - PERCENT POSITIVE 4 HR [2, 4]: 91.2% | FLUORESCENCE - PERCENT POSITIVE 5 HR [2, 4]: 100% | FLUORESCENCE - PERCENT POSITIVE 6 HR [2, 4]: 100% | FLUORESCENCE - PERCENT POSITIVE 1 HR [2, 5]: 0% | FLUORESCENCE - PERCENT POSITIVE 2 HR [2, 5]: 69.5% | FLUORESCENCE - PERCENT POSITIVE 3 HR [2, 5]: 91.5% | FLUORESCENCE - PERCENT POSITIVE 4 HR [2, 5]: 100% | FLUORESCENCE - PERCENT POSITIVE 5 HR [2, 5]: 100% | FLUORESCENCE - PERCENT POSITIVE 6 HR [2, 5]: 100% | FLUORESCENCE - PERCENT POSITIVE 1 HR [2, 6]: 0% | FLUORESCENCE - PERCENT POSITIVE 2 HR [2, 6]: 85.5% | FLUORESCENCE - PERCENT POSITIVE 3 HR [2, 6]: 96.4% | FLUORESCENCE - PERCENT POSITIVE 4 HR [2, 6]: 100% | FLUORESCENCE - PERCENT POSITIVE 5 HR [2, 6]: 100% | FLUORESCENCE - PERCENT POSITIVE 6 HR [2, 6]: 100% | FLUORESCENCE - PERCENT POSITIVE 1 HR [2, 7]: 8.8% | FLUORESCENCE - PERCENT POSITIVE 2 HR [2, 7]: 85.3% | FLUORESCENCE - PERCENT POSITIVE 3 HR [2, 7]: 100% | FLUORESCENCE - PERCENT POSITIVE 4 HR [2, 7]: 100% | FLUORESCENCE - PERCENT POSITIVE 5 HR [2, 7]: 100% | FLUORESCENCE - PERCENT POSITIVE 6 HR [2, 7]: 100% | FLUORESCENCE - PERCENT POSITIVE 1 HR [2, 8]: 0% | FLUORESCENCE - PERCENT POSITIVE 2 HR [2, 8]: 100.0% | FLUORESCENCE - PERCENT POSITIVE 3 HR [2, 8]: 100.0% | FLUORESCENCE - PERCENT POSITIVE 4 HR [2, 8]: 100.0% | FLUORESCENCE - PERCENT POSITIVE 1 HR [2, 9]: 13.8% | FLUORESCENCE - PERCENT POSITIVE 2 HR [2, 9]: 86.2% | FLUORESCENCE - PERCENT POSITIVE 3 HR [2, 9]: 100.0% | FLUORESCENCE - PERCENT POSITIVE 4 HR [2, 9]: 100.0%

Decaglyceryl Decaoleate
NO. GROWTH POSITIVE 168 HR [1, 9]: 31 | NO. GROWTH POSITIVE 168 HR [1, 10]: 30 | FLUORESCENCE - PERCENT POSITIVE 1 HR [2, 9]: 0% | FLUORESCENCE - PERCENT POSITIVE 2 HR [2, 9]: 19.4% | FLUORESCENCE - PERCENT POSITIVE 3 HR [2, 9]: 29.0% | FLUORESCENCE - PERCENT POSITIVE 4 HR [2, 9]: 41.9% | FLUORESCENCE - PERCENT POSITIVE 1 HR [2, 10]: 16.7% | FLUORESCENCE - PERCENT POSITIVE 2 HR [2, 10]: 20% | FLUORESCENCE - PERCENT POSITIVE 3 HR [2, 10]: 30% | FLUORESCENCE - PERCENT POSITIVE 4 HR [2, 10]: 50%
